Key:
[1] = tested on: human peripheral blood MP; assay: Inhibition of MP chemotaxis towards zymosan activated serum in double-filter Boyden chambers; assay type: cell-based; conditions: Boyden chamber; native MLIF and construct in similar concentrations, comparable to each other; n=8 for each group; FIG. 3C
Method: (§1) (b) Preparation of cells. MP (95±2%) and neutrophils (95±2%) were obtained from the peripheral blood of fasting, non-smoking individual donors, using Ficoll-Paque centrifugation and further enrichment of MP by nylon wool adherence. Cell viability was established (≧94%) before and after the experiments by trypan blue dye exclusion.
(§2) (c) MLIF activity. In vitro MLIF activity was assessed either by the inhibition of MP chemotaxis towards zymosan (Sigma) activated serum in double-filter (upper filter 5.0 μm pore size (Nuclepore), lower cell-impermeable filter 8.0 μm pore size (Sartorius)) Boyden chambers, or by the inhibition of MP or neutrophil, Luminol™ (Eastman Kodak) enhanced chemiluminescence after opsonized zymosan particle ingestion, measured in Biorbit 1250 chemiluminometer (LKB) (n>6). In vivo MLIF activity was measured by its capacity to inhibit DNCB (1-chloro-2-4 dinitrobenzene) contact hypersensitivity reactions in individually-caged Harley short hair adult guinea pigs previously (14 days) sensitized with a vesicant DNCB dose (10 mg/ml acetone olive oil (4:1) soaked 5 mm diameter Whatman #2 filter paper disks). […] Disks were removed after 24 h, and redness-induration measured blindly a day later. […]
(§3) In vitro activity of native MLIF and its synthetic custom construct is measured. […]

[2] = tested on: human peripheral blood MP; assay: Inhibition of Luminol enhanced chemiluminescence (respiratory burst) in opsonized zymosan activated MP; assay type: cell-based; conditions: measured as mV/10^6 cells over a 29-30 minute period; six experiments; comparing experimental conditions, except 1 vs 10 μg of construct; FIG. 3A
Method: as §1, §2, §3

[3] = tested on: human peripheral blood neutrophils; assay: Inhibition of Luminol enhanced chemiluminescence (respiratory burst) in opsonized zymosan activated neutrophils; assay type: cell-based; conditions: measured as mV/10^6 cells over a 29-30 minute period; six experiments; comparing experimental conditions; FIG. 3B
Method: as §1, §2, §3

[4] = tested on: DNCB contact hypersensitivity reactions in guinea pigs; assay: Inhibition of DNCB contact hypersensitivity skin reaction; assay type: in vivo, guinea pig; conditions: for Histology of inhibited DNCB reactions: biopsies, compared to normal, non-interfered DNCB reactions; for DNCB skin reaction (mm diameter, or positive/negative with cut-off 5 mm) compared to PBS or virgin axenic medium control: intradermal injection 0.05 ml, native MLIF 8 μg/ml, custom construct 1, 10 or 100 μg/ml, comparable among them, FIG. 4
Method: (c) MLIF activity. In vitro MLIF activity was assessed either by the inhibition of MP chemotaxis towards zymosan (Sigma) activated serum in double-filter (upper filter 5.0 μm pore size (Nuclepore), lower cell-impermeable filter 8.0 μm pore size (Sartorius)) Boyden chambers, or by the inhibition of MP or neutrophil, Luminol™ (Eastman Kodak) enhanced chemiluminescence after opsonized zymosan particle ingestion, measured in Biorbit 1250 chemiluminometer (LKB) (n>6). In vivo MLIF activity was measured by its capacity to inhibit DNCB (1-chloro-2-4 dinitrobenzene) contact hypersensitivity reactions in individually-caged Harley short hair adult guinea pigs previously (14 days) sensitized with a vesicant DNCB dose (10 mg/ml acetone olive oil (4:1) soaked 5 mm diameter Whatman #2 filter paper disks). Intradermal injections of 0.05 ml of either native MLIF (8 μg/ml), MLIF custom construct (0.001-100 μg/ml), or pyrogen free phosphate buffered saline pH 7.4, were applied just beneath and simultaneous to the application of the eliciting dose of DNCB (0.05 mg/ml soaked paper disks). Disks were removed after 24 h, and redness-induration measured blindly a day later. Biopsies were obtained for histological evaluation in selected samples. The animals were not sacrificed.
(f) Statistical analysis. Results of in vitro MLIF activity were analyzed by non-parametric Mann-Whitney or Kruskall-Wallis analysis of variance test, and in vivo activity results by Student's t and Fisher's exact tests.
The reaction is measured in mm diameter against the eliciting dose, or as positive or negative reactions of the same with a cut-off criterium of 5 mm in diameter.

[5] = tested on: human mononuclear phagocytes; assay: Cytoplasmic cyclic AMP in human mononuclear phagocytes; assay type: cell-based; conditions: interaction through a receptor on human mononuclear phagocytes
[6] = tested on: polymorphonuclear eosinophils; assay: Effect on eosinophils (locomotion or metabolism); assay type: cell-based; conditions: locomotion or metabolism of polymorphonuclear eosinophils

Row | Substance | Human peripheral blood MP chemotaxis compared to the normal chemotactic runs (i.e., 100%) [1] | Areas under the curve of chemiluminescence, MP [2] | Areas under the curve of chemiluminescence, neutrophils [3] | Histology of inhibited DNCB reactions [4] | DNCB skin reaction (mm diameter, or positive/negative with cut-off 5 mm) compared to PBS or virgin axenic medium control [4] | Cytoplasmic mediator cyclic AMP [5] | Effect on other cells, such as eosinophils [6] | Storage stability (at −70° C.) | Heat stability (incubation at 56° C.)
1 | M - Q - C - N - S (MQCNS; listed as Entamoeba histolytica) [native MLIF] | significantly lower (p<0.01) | significantly (p<0.01) different | significantly (p<0.01) different | scarce mononuclear perivascular infiltrate | significantly different (p<0.001) | increase | does not affect | storable | heat stable
2 | MQCNS [custom construct] | significantly lower (p<0.01) | significantly (p<0.01) different | significantly (p<0.01) different | scarce mononuclear perivascular infiltrate | significantly different (p<0.001) | – | – | – | –

Reference: patent publication US7569229B2, “Monocyte locomotion inhibitory factor” (Center for Blood Research, Inc., priority 1998, dated 2009)
